Source: patent US20230339977A1, “SUBSTITUTED HETEROARYL COMPOUND, AND COMPOSITION AND APPLICATION THEREOF” (SUNSHINE LAKE PHARMA CO., LTD., priority 2020, published 2023)
Like-named read-outs stand apart in the source and are kept apart here.

Tests used:
[1] = Stability in human liver microsomes; assay type: in vitro ADME
Description: (§1) The stability of the compounds of the present invention in human and rat liver microsomes can be tested by the following two methods:
(§2) Human or rat liver microsomes were incubated in polypropylene tubes in duplicate wells. A typical incubation mixture included human or rat liver microsomes (0.5 mg protein/mL), target compound (5 µM), and a total volume of 200 µL of NADPH (1.0 mM) potassium phosphate buffer (PBS, 100 mM, pH 7.4), the compound was dissolved in DMSO and diluted with PBS, the final concentration of the DMSO solution was 0.05%. Human or rat liver microsomes were incubated at 37° C. in an air-connected water bath. After pre-incubation for 3 minutes, […] was added to start the reaction. The same volume of ice-cold acetonitrile was added to terminate the reaction at different time points (0, 5, 10, 15, 30 and 60 min). Samples were stored at -80° C. until LC/MS/MS analysis.
(§3) The linear concentration range of each target compound was determined, and then, the concentration of the target compounds in the human or rat liver microsomes incubation mixture was determined by LC/MS/MS method.
(§4) Parallel incubations were performed using denatured microsomes as a negative control and dextromethorphan (70 µM) as a positive control. Negative control was incubated at 37° C., the reaction was terminated at different time points (0, 15 and 60 minutes); positive control was incubated at 37° C., the reaction was terminated at different time points (0, 5, 10, 15, 30 and 60 minutes). Positive and negative control samples were used in each assay to ensure the integrity of the microsomal incubation system.
(§5) In addition, the stability data of the compounds of the present invention in human or rat liver microsomes can also be obtained from the following tests:
(§6) Human or rat liver microsomes were incubated in polypropylene tubes in duplicate wells. A typical incubation mixture included human or rat liver microsomes (final concentration: 0.5 mg protein/mL), target compound (final concentration: 1.5 µM) and a total volume of 30 µL of K-buffer solution (containing 1.0 mM EDTA, 100 mM, pH 7.4). Compounds were dissolved in DMSO and diluted with K-buffer solution, the final concentration of DMSO was 0.2%. […]
(§7) For each reaction, in vivo intrinsic hepatic clearance CLint is extrapolated by plotting the compound concentration (expressed as a percentage) in human or rat liver microsomal incubations as a percentage relative to time zero (ref.: Naritomi Y, Terashita S, Kimura S, Suzuki A, Kagayama A, Sugiyama Y. Prediction of human hepatic clearance from in vivo animal experiments and in vitro metabolic studies with liver microsomes from animals and humans. Drug Metabolism and Disposition 2001, 29: 1316-1324.).

[2] = Pharmacokinetic evaluation in rats after intravenous injection and oral administration; assay type: in vivo; settings: rat, plasma; for AUC(0-t): read-out: PK AUClast; for Cmax: read-out: PK Cmax; for half-life: read-out: PK T½ (converted)
Description: The analytical LC/MS/MS system includes an Agilent 1200 series vacuum degasser, a binary syringe pump, an orifice plate autosampler, a column oven, and an Agilent G6430 triple quadrupole mass spectrometer with an electrospray ionization (ESI) source.
Agilent XDB-C18, 2.1 × 30 mm, 3.5 µM column was used to analysis, 5 µL sample was injected. Analytical conditions: Mobile phases were 0.1% formic acid in water (A) and 0.1% formic acid in methanol (B). The flow rate was 0.4 mL/min.
In addition, Agilent 6330 series LC/MS/MS spectrometer was used for analysis, equipped with G1312A binary syringe pump, G1367A automatic sampler and G1314C UV detector; LC/MS/MS spectrometer used ESI radiation source. Optimum analysis was achieved using standards with appropriate cation model processing and MRM conversion for each analyte. A Capcell MP-C18 column, 100 × 4.6 mm I.D., 5 µM (Phenomenex, Torrance, California, USA) was used during the analysis. Mobile phase was 5 mM ammonium acetate, 0.1% methanol in water (A): 5 mM ammonium acetate, 0.1% methanol in acetonitrile (B) (70/30, v/v); flow rate was 0.6 mL/min; column temperature was maintained at room temperature; 20 µL of sample was injected.
The present invention evaluates the pharmacokinetic studies of the compounds of the present invention in mice, rats, dogs or monkeys. The compounds of the present invention were administered in the form of aqueous solution or 2% HPMC + 1% Tween-80 aqueous solution, 5% DMSO + 5% saline solution, 4% MC or capsule. For intravenous administration, animals were dosed at about 0.5, 0.6, 1 or 2 mg/kg. The oral doses (p.o.) were 5 or 10 mg/kg for rats and mice, and 10 mg/kg for dogs and monkeys. Bloods (0.3 mL) were taken at time points 0.25, 0.5, 1.0, 2.0, 3.0, 4.0, 6.0, 8.0, 12 and 24 h and centrifuged at 3,000 or 4,000 rpm for 10 min. Plasma solutions were collected and stored at -20° C. or -70° C. until LC/MS/MS analysis as described above. […] Table 2 is the experimental results of the pharmacokinetic characteristics of the compounds provided in the examples of the present invention in rats.

[3] = Stability in rat liver microsomes; assay type: in vitro ADME
Description: as §1, §2, §3, §4, §5, §6, §7

[4] = test system: P-STAT3; experiment: Effect of TYK2 inhibitor on P-STAT3 expression in PBMC induced by IFN-α (Table 3, P-STAT3 (h)); assay type: cell-based; settings: Homo sapiens; P-STAT3 by ELISA, PBMC stimulated with IFN-α 5000 U/mL
Description: Whole blood was collected from healthy subjects, anticoagulated with heparin sodium, and PBMC (human peripheral blood mononuclear cells) were extracted. PBMC were seeded in 96-well culture plates at a density of 1*106/well. The initial concentration of the positive drug BMS986165 was 1000 nM, after diluting 10 times, the positive drug BMS986165 was diluted 8 concentrations by 3 times; the concentration of the other tested compounds was 333 nM. Positive wells and negative wells were added with the same volume of DMSO as the compound, and the final concentration of DMSO was 0.5%. After the compound was added, the cells were incubated at 37° C. for 1 h, and then stimulated by the addition of IFN-α at a final concentration of 5000 U/mL. An equal volume of medium was added to the negative wells and incubated for 15 min. The cells were centrifuged to remove the supernatant, and lysed, and the P-STAT3 was measured according to the instructions of the ELISA kit, the absorbance was read at 450 nm, and the IC50 value or inhibition rate was calculated.
CTLL-2, P-STAT3 and TF-1 cells were seeded in a 96-well culture plate at a density of 20,000/well with 90 µL per well, and the blank well was an equal amount of complete medium. […]

[5] = test system: CTLL-2 cells; experiment: Inhibitory effect on CTLL-2 cell proliferation; assay type: cell-based; settings: alamar blue, read-out: IC50 (nM) CTLL-2 (h)
Description: CTLL-2, P-STAT3 and TF-1 cells were seeded in a 96-well culture plate at a density of 20,000/well with 90 µL per well, and the blank well was an equal amount of complete medium. 10 ul of different compound dilutions were added to each plate row BC, DE, and FG, and 5% DMSO medium with equal volume of the compound was added to positive wells and negative wells, and the final concentration of DMSO was 0.5%. After incubating in a 37° C. incubator for 20 h, alamar blue was added, the plate was incubated for 4 h, the fluorescence intensity of each well under the conditions of […], 580 nm wavelength was measured, and the IC50 value was calculated.

[6] = test system: TF-1 cells; experiment: Inhibitory effect on TF-1 cell proliferation; assay type: cell-based; settings: Homo sapiens, alamar blue, read-out: IC50 (nM) TF-1 (h)
Description: TF-1 cells were seeded in a 96-well culture plate at a density of 20,000/well with 80 µL per well, the blank well was an equal amount of complete medium, and 10 µL of the compound dilution solution was added to the 96-well plate B1-11, C1-11, E1-11, F1-11, positive and negative wells were added with 5% DMSO medium equal to the volume of the compound, and the final concentration of DMSO was 0.5%. After 30 min, GM-CSF with a final concentration of 2 ng/mL was added to rows B, C, and D (positive wells), and the remaining wells (rows E, F, and G) were added with the same volume of medium as cytokines (negative wells). After incubation for 44 h at 37° C. in 5% CO2, alamar blue was added, the plate was incubated for 4 h, the fluorescence intensity of each well under the conditions of […], 580 nm wavelength was measured, and the IC50 value was calculated.
CTLL-2, P-STAT3 and TF-1 cells were seeded in a 96-well culture plate at a density of 20,000/well with 90 µL per well, and the blank well was an equal amount of complete medium. 10 ul of different compound dilutions were added to each plate row BC, DE, and FG, and 5% DMSO medium with equal volume of the compound was added to positive wells and negative wells, and the final concentration of DMSO was 0.5%. […]

[7] = test system: JAK1/TYK2; experiment: Cell level activity test of JAK1/TYK2 (IFN-α induced STAT3 phosphorylation in PBMC); assay type: cell-based; settings: Homo sapiens; P-STAT3 by ELISA in PBMC, compound 1 h, IFN-α 5000 U/mL 15 min; read-out: IC50 nM (JAK 1 /TYK2)
Description: IFN-α can induce the phosphorylation of STAT3 downstream of JAK1/TYK2 in PBMC, and by measuring the level of STAT3 phosphorylation, the activity of the compound on JAK1/TYK2 at the cell level can be reflected.
Whole blood was collected from healthy subjects, anticoagulated with heparin sodium, and PBMC (human peripheral blood mononuclear cells) were extracted. PBMC were seeded in a 96-well culture plates at a density of 1*106/well. Positive wells and negative wells were added with the same volume of DMSO as the compound, and the final concentration of DMSO was 0.5%. The compounds were incubated with the cells at 37° C. for 1 h, and then stimulated by adding IFN-α at a final concentration of 5000 U/mL, an equal volume of medium was added to the negative wells, and incubated for 15 min. The cells were centrifuged to remove the supernatant, then lysed, and P-STAT3 was measured according to the instructions of the ELISA kit, the absorbance was read at 450 nm, and the IC50 value or inhibition rate was calculated.

[8] = pH 7.4, in vivo intrinsic hepatic clearance extrapolated

| half-life ([1]; human, pH 7.4, read-out: Human T½) [h] | CLint scaled [1, 8] [mL/min/kg] | AUC(0-t) ([2]; IV 1 mg/kg) [ng·h/mL] | Cmax ([2]; IV 1 mg/kg) [ng/mL] | half-life ([2]; IV 1 mg/kg) [h] | AUC(0-t) ([2]; PO 5 mg/kg) [ng·h/mL] | Cmax ([2]; PO 5 mg/kg) [ng/mL] | half-life ([2]; PO 5 mg/kg) [h] | bioavailability ([2]; oral bioavailability, PO 5 mg/kg) [%] | CLint scaled [3, 8] [mL/min/kg] | half-life ([3]; rat, pH 7.4, read-out: Rat T½) [h] | IC50 [4] [nM] | IC50 [7] [nM] | Structure (SMILES) | IC50 [5] [nM] | IC50 [6] [nM] |
| --- | --- | --- | --- | --- | --- | --- | --- | --- | --- | --- | --- | --- | --- | --- | --- |
| 1.92 | 15.1 | 1650 | 1170 | 1.24 | 8810 | 2650 | 3.11 | 107 | 16.2 | 2.56 |  |  | COc1cc(-c2cn(C)c3cnc(NC(C)=O)cc23)nc2c1COC21CCOC1 (stereo not drawn) [Example 1, N-(3-(4′-methoxy-4,5-dihydro-2H,5′H-spiro[furan-3,7′-furo[3,4-b]pyridin]-2′ -yl)-1-methyl-1H-pyrrolo[2,3-c]pyridin-5-yl)acetamide] |  |  |
|  |  |  |  |  |  |  |  |  |  |  | 21.4 | 21.4 | CC(=O)Nc1cc2c(-c3ccc4c(n3)C3(CCOC3)OCC4)cn(C)c2cn1 (stereo not drawn) [Example 3, N-(1-Methyl-3-(4,5,5′,6′-Tetrahydro-2H-Spiro[Furan-3,8′-Pyrano[3,4-b]Pyridine]-2′-yl)-1H-Pyrrolo[2,3-c]Pyridin-5-yl)Acetamide] | > 10000 | 5290 |
